Where a name gives a salt, the structure may show the parent alone.

As usually defined, the melting point is the temperature, or range, at which the solid turns liquid. Compound `CCOCc1nc2c(N)nc3ccccc3c2n1CCCCS(=O)(=O)NCc1ccc(OC)cc1` [Example 20, N-(4-Methoxybenzyl) 4-(4-amino-2-ethoxymethyl-1H-imidazo[4,5-c]quinolin-1-yl)butane-1-sulfonamide] had a melting point of 101 °C.

Turning to `CCOCc1nc2c(N)nc3ccccc3c2n1CCCCS(=O)(=O)NC` [Example 10, N-Methyl 4-(4-amino-2-ethoxymethyl-1H-imidazo[4,5-c]quinolin-1-yl)butane-1-sulfonamide], the melting point was in the range of 170 to 172 °C. Take `CCOCc1nc2c(N)nc3ccccc3c2n1CC(C)(C)CS(=O)(=O)NC` [Example 36, 3-[4-Amino-2-(ethoxymethyl)-1H-imidazo[4,5-c]quinolin-1-yl]-N,2,2-trimethylpropane-1-sulfonamide]: the melting point lay in the range of 161 to 163 °C.

Compound `CCc1nc2c(N)nc3ccccc3c2n1CCCCS(=O)(=O)NCc1ccc(OC)cc1` [Example 5, N-(4-Methoxybenzyl) 4-(4-amino-2-ethyl-1H-imidazo[4,5-c]quinolin-1-yl)butane-1-sulfonamide] had a melting point of 176 to 177 °C. `CCOCc1nc2c(N)nc3ccccc3c2n1CCCCCS(=O)(=O)N(C)C` [Example 17, N,N-Dimethyl 5-(4-amino-2-ethoxymethyl-1H-imidazo[4,5-c]quinolin-1-yl)pentane-1-sulfonamide] displayed a melting point of 138 to 142 °C. Turning to `CCCc1nc2c(N)nc3cccnc3c2n1CCCCS(=O)(=O)NC` [Example 33, N-Methyl 4-(4-Amino-2-propyl-1H-imidazo[4,5-c][1,5]naphthyridin-1-yl)butane-1-sulfonamide], the melting point is 174 to 175 °C. Next, `CCOCc1nc2c(N)nc3ccccc3c2n1CCCCS(=O)(=O)NC(C)C` [Example 37, 4-[4-Amino-2-(ethoxymethyl)-1H-imidazo[4,5-c]quinolin-1-yl]-N-isopropylbutane-1-sulfonamide]: 146 to 147 °C; `CN(C)S(=O)(=O)CCCn1cnc2c(N)nc3ccccc3c21` [Example 7, N,N-Dimethyl 3-(4-amino-1H-imidazo[4,5-c]quinolin-1-yl)propane-1-sulfonamide]: 155 to 157 °C. For the compound `CCOCc1nc2c(N)nc3ccccc3c2n1CCCCCS(N)(=O)=O` [Example 23, 5-(4-Amino-2-ethoxymethyl-1H-imidazo[4,5-c]quinolin-1-yl)pentane-1-sulfonamide], the melting point fell in the range of 176 to 178 °C.

In turn, `CCOCc1nc2c(N)nc3ccccc3c2n1CCOCCCS(=O)(=O)N(C)C` [Example 15, N,N-Dimethyl 3-[2-(4-amino-2-ethoxymethyl-1H-imidazo[4,5-c]quinolin-1-yl)ethoxy]propane-1-sulfonamide] gave a melting point of 61 to 64 °C. The result for `CCOCc1nc2c(N)nc3ccccc3c2n1CC(C)(C)CS(=O)(=O)N(C)C` (as salt: hydrochloride) [Example 25, N,N-Dimethyl 3-(4-amino-2-ethoxymethyl-1H-imidazo[4,5-c]quinolin-1-yl)-2,2-dimethylpropane-1-sulfonamide] reads 193 to 195 °C. The result for `CCOCc1nc2c(N)nc3c(c2n1CCCCS(=O)(=O)NC)CCCC3` [Example 18, N-Methyl 4-(4-amino-2-ethoxymethyl-6,7,8,9-tetrahydro-1H-imidazo[4,5-c]quinolin-1-yl)butane-1-sulfonamide] reads 188 to 192 °C; that for `CCOCc1nc2c(N)nc3ccccc3c2n1CCCCS(N)(=O)=O` [Example 21, 4-(4-Amino-2-ethoxymethyl-1H-imidazo[4,5-c]quinolin-1-yl)butane-1-sulfonamide], 155 to 158 °C. `CCOCc1nc2c(N)nc(C)c(C)c2n1CCCCS(=O)(=O)NC` [Example 34, N-Methyl 4-(4-Amino-6,7-dimethyl-2-ethoxymethyl-1H-imidazo[4,5-c]pyridin-1-yl) butane-1-sulfonamide]: the melting point fell in the range of 194.5 to 196 °C. In turn, `CCOCc1nc2c(N)nc3ccccc3c2n1CCCCS(=O)(=O)Nc1ccccn1` [Example 40, 4-[4-Amino-2-(ethoxymethyl)-1H-imidazo[4,5-c]quinolin-1-yl]-N-(pyridin-2-yl)butane-1-sulfonamide] yielded a melting point of 197 to 200 °C.

The compound `CCCc1nc2c(N)nc(C)c(C)c2n1CCCCS(=O)(=O)NC` [Example 27, N-Methyl 4-(4-Amino-6,7-dimethyl-2-propyl-1H-imidazo[4,5-c]pyridin-1-yl)butane-1-sulfonamide] yielded a melting point of 164 to 166 °C.

In turn, `CCCc1nc2c(N)nc3cccnc3c2n1CCCCS(=O)(=O)N(C)C` [Example 30, N,N-Dimethyl 4-(4-Amino-2-propyl-1H-imidazo[4,5-c][1,5]naphthyridin-1-yl)butane-1-sulfonamide] came in with a melting point of 162 to 163 °C. `CCOCc1nc2c(N)nc3cccnc3c2n1CCCCS(=O)(=O)N(C)C` [Example 29, N,N-Dimethyl 4-(4-Amino-2-ethoxymethyl-1H-imidazo[4,5-c][1,5]naphthyridin-1-yl)butane-1-sulfonamide] gave a melting point of 148 to 150 °C.

Compound `CCOCc1nc2c(N)nc3cccnc3c2n1CCCCS(=O)(=O)NC` [Example 32, N-Methyl 4-(4-Amino-2-ethoxymethyl-1H-imidazo[4,5-c][1,5]naphthyridin-1-yl)butane-1-sulfonamide] gave a melting point of 148 to 150 °C. For `CCOCc1nc2c(N)nc3ccccc3c2n1CCCCS(=O)(=O)N(C)C` [Example 11, N,N-Dimethyl 4-(4-amino-2-ethoxymethyl-1H-imidazo[4,5-c]quinolin-1-yl)butane-1-sulfonamide], the melting point is 173 to 174 °C. Next, `CCc1nc2c(N)nc3ccccc3c2n1CCCCS(=O)(=O)N(C)C` [Example 3, N,N-Dimethyl 4-(4-amino-2-ethyl-1H-imidazo[4,5-c]quinolin-1-yl)butane-1-sulfonamide]: 193 to 195 °C; `CCCCNS(=O)(=O)CCCCn1c(COCC)nc2c(N)nc3ccccc3c21` [Example 14, N-Butyl 4-(4-amino-2-ethoxymethyl-1H-imidazo[4,5-c]quinolin-1-yl)butane-1-sulfonamide]: 148 to 149 °C.

`CCOCc1nc2c(N)nc3ccccc3c2n1CCCCS(=O)(=O)Nc1ccc(OC)cc1` [Example 8, N-(4-Methoxyphenyl) 4-(4-amino-2-ethoxymethyl-1H-imidazo[4,5-c]quinolin-1-yl)butane-1-sulfonamide]: the melting point was 229 to 230 °C.

`CCCc1nc2c(N)nc(C)c(C)c2n1CCCCS(=O)(=O)N(C)C` [Example 26, N,N-Dimethyl 4-(4-Amino-6,7-dimethyl-2-propyl-1H-imidazo[4,5-c]pyridin-1-yl)butane-1-sulfonamide]: the melting point lay within 127 to 128 °C.

Regarding `Cc1nc2c(N)nc3c(c2n1CC(C)(C)CS(N)(=O)=O)CCCC3` [Example 43, 3-(4-Amino-2-methyl-6,7,8,9-tetrahydro-1H-imidazo[4,5-c]quinolin-1-yl)-2,2-dimethylpropane-1-sulfonamide], the melting point was 242 to 243 °C (dec.). Next, `CCOCc1nc2c(N)nc3c(c2n1CCCCCS(N)(=O)=O)CCCC3` [Example 38, 5-[4-amino-2-(ethoxymethyl)-6,7,8,9-tetrahydro-1H-imidazo[4,5-c]quinolin-1-yl]pentane-1-sulfonamide]: 203 to 205 °C; `CCOCc1nc2c(N)nc3ccccc3c2n1CC(C)(C)CS(=O)(=O)NCc1ccc(OC)cc1` [Example 41, 3-[4-Amino-2-(ethoxymethyl)-1H-imidazo[4,5-c]quinolin-1-yl]-N-(4-methoxybenzyl)-2,2-dimethylpropane-1-sulfonamide]: 203 to 205 °C. Compound `CCc1nc2c(N)nc3ccccc3c2n1CCCCS(=O)(=O)NC` [Example 4, N-Methyl 4-(4-amino-2-ethyl-1H-imidazo[4,5-c]quinolin-1-yl)butane-1-sulfonamide] registered a melting point of 190 to 191 °C.
